Source: ChEMBL document CHEMBL5050844 (2019)

Assays:
Type in all cases: functional, T cell line
[1] = Induction of anti-CD3 antibodies-stimulated human T cell activation at 8 uM assessed fold increase in IL-2 secretion measured by ELISA assay; note: reference of the scale not given here
[2] = Induction of anti-CD3 antibodies-stimulated human T cell activation at 8 uM assessed fold increase in CD25 expression measured by ELISA assay; note: reference of the scale not given here
[3] = Induction of anti-CD3/CD28 antibodies-stimulated human T cell activation at 4 uM assessed fold increase in CD25 expression measured by ELISA assay
[4] = Induction of anti-CD3/CD28 antibodies-stimulated human T cell activation at 0.3 uM assessed fold increase in IL-2 secretion measured by ELISA assay
[5] = Induction of anti-CD3 antibodies-stimulated human T cell activation at 1 uM assessed fold increase in IL-2 secretion measured by ELISA assay; note: reference of the scale not given here
[6] = Induction of anti-CD3 antibodies-stimulated human T cell activation at 1 uM assessed fold increase in CD25 expression measured by ELISA assay; note: reference of the scale not given here
[7] = Induction of anti-CD3/CD28 antibodies-stimulated human T cell activation at 0.3 uM assessed fold increase in CD25 expression measured by ELISA assay
[8] = Induction of anti-CD3/CD28 antibodies-stimulated human T cell activation at 1 uM assessed fold increase in CD25 expression measured by ELISA assay
[9] = Induction of anti-CD3/CD28 antibodies-stimulated human T cell activation at 4 uM assessed fold increase in IL-2 secretion measured by ELISA assay
[10] = Induction of anti-CD3/CD28 antibodies-stimulated human T cell activation at 1 uM assessed fold increase in IL-2 secretion measured by ELISA assay

| Structure (SMILES) | fold change (FC) [1] | fold change (FC) [2] | fold change (FC) [3] | fold change (FC) [4] | fold change (FC) [5] | fold change (FC) [6] | fold change (FC) [7] | fold change (FC) [8] | fold change (FC) [9] | fold change (FC) [10] |
| --- | --- | --- | --- | --- | --- | --- | --- | --- | --- | --- |
| C[C@H](Cc1nncn1C)c1cccc(NC(=O)c2cc(C(=O)N3CC[C@](C)(O)C3)ccn2)c1 | <=0.05 | <=0.6 | 1.51 | <=1 | <=0.05 | <=0.6 | 1.51 | 1.31 | <=1 | <=1 |
| C[C@H](Sc1nncn1C)c1cccc(NC(=O)c2cccc(S(C)(=O)=O)n2)c1 | <=0.05 | <=0.6 | 1.01 | <=1 | <=0.05 | <=0.6 | 1.01 | 1.01 | 1.01 | 1.01 |
| Cn1cnnc1C[C@]1(c2cccc(N3Cc4c(cccc4C(F)(F)F)C3=O)c2)C[C@H](CO)C1 | >=0.201 | >=1.001 | 1.51 | 1.01 | 0.101 | 0.801 | 1.31 | 1.51 | 5 | 2.51 |
| Cn1cnnc1[C@H](F)[C@](C)(F)c1cccc(N2Cc3c(cc(C4CC4)cc3C(F)(F)F)C2=O)c1 | 0.101 | >=1.001 | 1.01 | <=1 | 0.051 | 0.801 | 1.01 | 1.01 | 2.51 | 1.01 |
| Cn1cnnc1CC1(c2cccc(NC(=O)c3ccnc(C(F)(F)F)n3)c2)COC1 | 0.151 | >=1.001 | 1.01 | 1.01 | 0.051 | 0.601 | 1.01 | 1.01 | 2.51 | 2.51 |
| C[C@H](Cc1nnc[nH]1)c1cccc(N2Cc3c(cccc3C(F)(F)F)C2=O)c1 | <=0.05 | <=0.6 | 1.31 | <=1 | <=0.05 | <=0.6 | 1.01 | 1.31 | 1.01 | <=1 |
| COc1nc(C(=O)Nc2cccc([C@H](C)Sc3nncn3C)c2)cc2ccccc12 | 0.051 | 0.801 | 1.01 | 2.51 | <=0.05 | <=0.6 | <=1 | 1.01 | >=7.5 | 5 |
| C[C@H](Sc1nncn1C)c1cccc(NC(=O)c2cc(C(F)(F)F)cc(C(F)(F)F)n2)c1 | <=0.05 | 0.601 | 1.01 | <=1 | <=0.05 | <=0.6 | <=1 | <=1 | 1.01 | <=1 |
| CC(Sc1nncn1C)c1cc(F)cc(N2Cc3c(cccc3C(F)(F)F)C2=O)c1 (stereo not given) | 0.051 | 0.601 | 1.01 | 1.01 | <=0.05 | 0.801 | <=1 | <=1 | 1.01 | 1.01 |
| C[C@H](Cc1nncn1C)c1cc(NCCO)nc(N2Cc3c(cccc3C(F)(F)F)C2=O)c1 | 0.151 | >=1.001 | 1.01 | 1.01 | 0.051 | 0.601 | 1.01 | 1.01 | 2.51 | 1.01 |
| C[C@H](Cc1nncn1C1CC1)c1cccc(N2Cc3c(cccc3C(F)(F)F)C2=O)c1 | <=0.05 | 0.801 | 1.01 | <=1 | <=0.05 | 0.601 | 1.01 | 1.01 | 1.01 | 1.01 |
| C[C@H](Cc1nncn1C)c1cccc(NC(=O)c2cnn3cccnc23)c1 | 0.051 | 0.601 | 1.01 | 1.01 | 0.051 | 0.601 | <=1 | <=1 | 1.01 | 1.01 |
| CCn1cnnc1C[C@@H](C)c1cccc(NC(=O)c2cc(C(=O)N3C[C@@H](O)C[C@H]3C)ccn2)c1 | 0.151 | 0.601 | 1.01 | <=1 | 0.151 | 0.601 | 1.01 | 1.01 | 1.01 | <=1 |
| C[C@H](Cc1nncn1C)c1cccc(NC(=O)c2cc3cccn3cn2)c1 | 0.101 | 0.801 | 1.01 | 1.01 | 0.051 | 0.601 | 1.01 | 1.01 | 1.01 | 1.01 |
| Cn1cnnc1C(F)(F)[C@](C)(F)c1cccc(N2Cc3c(cc(C(=O)N4CC(C(F)F)C4)cc3C(F)(F)F)C2=O)c1 | 0.051 | 0.801 | 1.01 | 1.01 | 0.051 | 0.601 | 1.01 | 1.01 | 1.01 | 1.01 |
| C[C@H](Sc1nncn1C)c1cccc(NC(=O)c2cncc(C(F)(F)F)n2)c1 | <=0.05 | 0.601 | 1.01 | <=1 | <=0.05 | <=0.6 | <=1 | 1.01 | 1.01 | 1.01 |
| Cc1ccc(C(=O)Nc2cc([C@H](C)Sc3nncn3C)ccn2)nc1C1CC1 | <=0.05 | <=0.6 | 1.01 | 2.51 | <=0.05 | <=0.6 | <=1 | <=1 | 5 | 2.51 |
